Tested on: U87 cells
Test: Cytotoxicity of TMZ micelles (Guava ViaCount cell viability assay)
Description: Three cytotoxicity experiments, using Guava Via-Count Assay and flow cytometry (EMD Millipore, MA, USA), were performed using increasing concentrations of free TMZ, MTMZ and PMTMZ over increasing time. Cells (30,000 cells per well) were plated in 24-well plates and incubated overnight at 37° C. with 5% CO2. A TMZ solution (1 mg ml^−1) in DMSO was prepared and stored at 4° C. The stock solution was diluted with alpha-MEM and used to prepare free TMZ at increasing concentrations of 0-100 04. Independently, both 1 μM and 10 04 samples of PMTMZ and MTMZ were prepared with alpha-MEM. The triplicate wells were treated with concentrations at a constant volume of 200 μl per well. After 24 h, cell viability was performed using Guava ViaCount Assay and flow cytometry (EMD Millipore). The remaining wells were retreated with the appropriate concentrations over a 10 day period. Viability data was collected and analyzed.

## Cn1nnc2c(C(N)=O)ncn2c1=O [free TMZ, temozolomide]
U87, 1 μM, between 1 and 5 days
  Cells killed (cell death): approximately 4%
U87, 10 or 100 μM, between 24 and 72 h
  Cell death: ~2%
